# From patent US8765669B2, “Glycosylated GLP-1 peptide” (Glytech, Inc., priority 2008, dated 2014)
# No end group written: not given here.
# Molecular target: T1, DPP-IV (dipeptidyl peptidase IV from porcine kidney) (Sus scrofa, UniProt P22411)
# T1 construct: dipeptidyl peptidase IV from porcine kidney, product of SIGMA; purchased SIGMA; host or cells: porcine kidney (tissue-derived enzyme)
# Assay: Test of resistance to dipeptidyl peptidase IV (DPP-IV)
# Format: in vitro ADME
# Conditions: half-life (t1/2) in DPP-IV solution at 37° C., GLP-1 of Comparative Example 1 defined as standard (=1)
# Experimental: Each solution mixture was adjusted with 100 mM sodium phosphate buffer to 100 μl in total and allowed to react at 37° C. A 10 μaliquot of the reaction solution was mixed with 15 μl of 10% trifluoroacetic acid prepared in advance in another Eppendorf tube.
# T1 sequence (P22411 whole entry): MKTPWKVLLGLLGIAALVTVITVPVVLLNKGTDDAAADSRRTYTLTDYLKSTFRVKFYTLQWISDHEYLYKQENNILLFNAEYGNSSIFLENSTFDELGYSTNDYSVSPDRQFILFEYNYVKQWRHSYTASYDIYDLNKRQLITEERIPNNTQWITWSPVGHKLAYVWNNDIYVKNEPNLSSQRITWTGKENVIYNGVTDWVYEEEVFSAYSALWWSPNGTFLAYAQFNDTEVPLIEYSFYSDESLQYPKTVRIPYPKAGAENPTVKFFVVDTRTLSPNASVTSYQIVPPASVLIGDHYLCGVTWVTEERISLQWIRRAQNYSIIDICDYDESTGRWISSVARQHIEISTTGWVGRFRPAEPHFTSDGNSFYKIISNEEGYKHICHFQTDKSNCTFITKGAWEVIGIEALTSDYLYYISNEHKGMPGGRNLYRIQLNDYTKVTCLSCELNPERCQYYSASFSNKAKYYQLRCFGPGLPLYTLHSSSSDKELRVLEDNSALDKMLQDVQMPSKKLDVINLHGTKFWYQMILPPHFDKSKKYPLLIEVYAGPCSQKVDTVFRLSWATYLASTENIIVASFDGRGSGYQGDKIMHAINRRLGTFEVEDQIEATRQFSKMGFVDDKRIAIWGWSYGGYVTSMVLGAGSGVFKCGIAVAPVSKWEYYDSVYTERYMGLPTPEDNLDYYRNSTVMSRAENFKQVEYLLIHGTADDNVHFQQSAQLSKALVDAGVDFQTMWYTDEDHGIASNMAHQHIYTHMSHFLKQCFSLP
row,Compound,Relative Resistance
1,"CC[C@H](C)[C@H](NC(=O)[C@H](Cc1ccccc1)NC(=O)[C@H](CCC(=O)O)NC(=O)[C@H](CCCCN)NC(=O)[C@H](C)NC(=O)[C@H](C)NC(=O)[C@H](CCC(N)=O)NC(=O)CNC(=O)[C@H](CCC(=O)O)NC(=O)[C@H](CC(C)C)NC(=O)[C@H](Cc1ccc(O)cc1)NC(=O)[C@H](CO)NC(=O)[C@H](CO)NC(=O)[C@@H](NC(=O)[C@H](CC(=O)O)NC(=O)[C@H](CO)NC(=O)[C@@H](NC(=O)[C@H](Cc1ccccc1)NC(=O)[C@@H](NC(=O)CNC(=O)[C@H](CCC(=O)O)NC(=O)[C@H](C)NC(=O)[C@@H](N)Cc1c[nH]cn1)[C@@H](C)O)[C@@H](C)O)C(C)C)C(=O)N[C@@H](CSCC(=O)N[C@@H]1O[C@H](CO)[C@@H](O)[C@H](O[C@@H]2O[C@H](C(=O)O)[C@@H](O[C@@H]3O[C@H](CO)[C@@H](O)[C@H](O[C@@H]4O[C@H](C(=O)O)[C@@H](O)[C@H](O)[C@H]4O)[C@H]3NC(C)=O)[C@H](O)[C@H]2O)[C@H]1NC(C)=O)C(=O)N[C@@H](Cc1c[nH]c2ccccc12)C(=O)N[C@@H](CC(C)C)C(=O)N[C@H](C(=O)N[C@@H](CCCCN)C(=O)NCC(=O)N[C@@H](CCCNC(=N)N)C(=O)NCC(=O)O)C(C)C [Example 6, 30Cys-hyaluronic acid tetrasaccharide (HA-4) Added GLP-1 Peptide]",2.1
2,"CC[C@H](C)[C@H](NC(=O)[C@H](Cc1ccccc1)NC(=O)[C@H](CCC(=O)O)NC(=O)[C@H](CCCCN)NC(=O)[C@H](C)NC(=O)[C@H](C)NC(=O)[C@H](CCC(N)=O)NC(=O)CNC(=O)[C@H](CCC(=O)O)NC(=O)[C@H](CC(C)C)NC(=O)[C@H](Cc1ccc(O)cc1)NC(=O)[C@H](CO)NC(=O)[C@H](CO)NC(=O)[C@@H](NC(=O)[C@H](CC(=O)O)NC(=O)[C@H](CO)NC(=O)[C@@H](NC(=O)[C@H](Cc1ccccc1)NC(=O)[C@@H](NC(=O)CNC(=O)[C@H](CCC(=O)O)NC(=O)[C@H](C)NC(=O)[C@@H](N)Cc1c[nH]cn1)[C@@H](C)O)[C@@H](C)O)C(C)C)C(=O)N[C@@H](C)C(=O)N[C@@H](Cc1c[nH]c2ccccc12)C(=O)N[C@@H](CC(C)C)C(=O)N[C@H](C(=O)N[C@@H](CCCCN)C(=O)NCC(=O)N[C@@H](CSCC(=O)N[C@@H]1O[C@H](CO)[C@@H](O)[C@H](O[C@@H]2O[C@H](C(=O)O)[C@@H](O[C@@H]3O[C@H](CO)[C@@H](O)[C@H](O[C@@H]4O[C@H](C(=O)O)[C@@H](O)[C@H](O)[C@H]4O)[C@H]3NC(C)=O)[C@H](O)[C@H]2O)[C@H]1NC(C)=O)C(=O)NCC(=O)O)C(C)C [Example 8, 36Cys-hyaluronic acid tetrasaccharide (HA-4) Added GLP-1 Peptide]",2.2
3,"CC[C@H](C)[C@H](NC(=O)[C@H](Cc1ccccc1)NC(=O)[C@H](CCC(=O)O)NC(=O)[C@H](CCCCN)NC(=O)[C@H](C)NC(=O)[C@H](C)NC(=O)[C@H](CCC(N)=O)NC(=O)[C@H](CSCC(=O)N[C@@H]1O[C@H](CO)[C@@H](O[C@@H]2O[C@H](CO)[C@@H](O[C@@H]3O[C@H](CO[C@H]4O[C@H](CO)[C@@H](O)[C@H](O)[C@@H]4O[C@@H]4O[C@H](CO)[C@@H](O[C@@H]5O[C@H](CO[C@]6(C(=O)O)C[C@H](O)[C@@H](NC(C)=O)[C@H]([C@H](O)[C@H](O)CO)O6)[C@H](O)[C@H](O)[C@H]5O)[C@H](O)[C@H]4NC(C)=O)[C@@H](O)[C@H](O[C@H]4O[C@H](CO)[C@@H](O)[C@H](O)[C@@H]4O[C@@H]4O[C@H](CO)[C@@H](O[C@@H]5O[C@H](CO[C@]6(C(=O)O)C[C@H](O)[C@@H](NC(C)=O)[C@H]([C@H](O)[C@H](O)CO)O6)[C@H](O)[C@H](O)[C@H]5O)[C@H](O)[C@H]4NC(C)=O)[C@@H]3O)[C@H](O)[C@H]2NC(C)=O)[C@H](O)[C@H]1NC(C)=O)NC(=O)[C@H](CCC(=O)O)NC(=O)[C@H](CC(C)C)NC(=O)[C@H](Cc1ccc(O)cc1)NC(=O)[C@H](CO)NC(=O)[C@H](CO)NC(=O)[C@@H](NC(=O)[C@H](CC(=O)O)NC(=O)[C@H](CO)NC(=O)[C@@H](NC(=O)[C@H](Cc1ccccc1)NC(=O)[C@@H](NC(=O)CNC(=O)[C@H](CCC(=O)O)NC(=O)[C@H](C)NC(=O)[C@@H](N)Cc1c[nH]cn1)[C@@H](C)O)[C@@H](C)O)C(C)C)C(=O)N[C@@H](C)C(=O)N[C@@H](Cc1c[nH]c2ccccc12)C(=O)N[C@@H](CC(C)C)C(=O)N[C@H](C(=O)N[C@@H](CCCCN)C(=O)NCC(=O)N[C@@H](CSCC(=O)N[C@@H]1O[C@H](CO)[C@@H](O[C@@H]2O[C@H](CO)[C@@H](O[C@@H]3O[C@H](CO[C@H]4O[C@H](CO)[C@@H](O)[C@H](O)[C@@H]4O[C@@H]4O[C@H](CO)[C@@H](O[C@@H]5O[C@H](CO[C@]6(C(=O)O)C[C@H](O)[C@@H](NC(C)=O)[C@H]([C@H](O)[C@H](O)CO)O6)[C@H](O)[C@H](O)[C@H]5O)[C@H](O)[C@H]4NC(C)=O)[C@@H](O)[C@H](O[C@H]4O[C@H](CO)[C@@H](O)[C@H](O)[C@@H]4O[C@@H]4O[C@H](CO)[C@@H](O[C@@H]5O[C@H](CO[C@]6(C(=O)O)C[C@H](O)[C@@H](NC(C)=O)[C@H]([C@H](O)[C@H](O)CO)O6)[C@H](O)[C@H](O)[C@H]5O)[C@H](O)[C@H]4NC(C)=O)[C@@H]3O)[C@H](O)[C@H]2NC(C)=O)[C@H](O)[C@H]1NC(C)=O)C(=O)NCC(=O)O)C(C)C [Example 4, 22 and 36Cys-disialo oligosaccharide Chain Added GLP-1]",22.5
4,"CC[C@H](C)[C@H](NC(=O)[C@H](Cc1ccccc1)NC(=O)[C@H](CCC(=O)O)NC(=O)[C@H](CCCCN)NC(=O)[C@H](C)NC(=O)[C@H](C)NC(=O)[C@H](CCC(N)=O)NC(=O)CNC(=O)[C@H](CCC(=O)O)NC(=O)[C@H](CC(C)C)NC(=O)[C@H](Cc1ccc(O)cc1)NC(=O)[C@H](CO)NC(=O)[C@H](CO)NC(=O)[C@@H](NC(=O)[C@H](CC(=O)O)NC(=O)[C@H](CO)NC(=O)[C@@H](NC(=O)[C@H](Cc1ccccc1)NC(=O)[C@@H](NC(=O)CNC(=O)[C@H](CCC(=O)O)NC(=O)[C@H](C)NC(=O)[C@@H](N)Cc1c[nH]cn1)[C@@H](C)O)[C@@H](C)O)C(C)C)C(=O)N[C@@H](CSCC(=O)N[C@@H]1O[C@H](CO)[C@@H](O)[C@H](O[C@@H]2O[C@H](C(=O)O)[C@@H](O[C@@H]3O[C@H](CO)[C@@H](O)[C@H](O[C@@H]4O[C@H](C(=O)O)[C@@H](O[C@@H]5O[C@H](CO)[C@@H](O)[C@H](O[C@@H]6O[C@H](C(=O)O)[C@@H](O[C@@H]7O[C@H](CO)[C@@H](O)[C@H](O[C@@H]8O[C@H](C(=O)O)[C@@H](O[C@@H]9O[C@H](CO)[C@@H](O)[C@H](O[C@@H]%10O[C@H](C(=O)O)[C@@H](O[C@@H]%11O[C@H](CO)[C@@H](O)[C@H](O[C@@H]%12O[C@H](C(=O)O)[C@@H](O[C@@H]%13O[C@H](CO)[C@@H](O)[C@H](O[C@@H]%14O[C@H](C(=O)O)[C@@H](O[C@@H]%15O[C@H](CO)[C@@H](O)[C@H](O[C@@H]%16O[C@H](C(=O)O)[C@@H](O)[C@H](O)[C@H]%16O)[C@H]%15NC(C)=O)[C@H](O)[C@H]%14O)[C@H]%13NC(C)=O)[C@H](O)[C@H]%12O)[C@H]%11NC(C)=O)[C@H](O)[C@H]%10O)[C@H]9NC(C)=O)[C@H](O)[C@H]8O)[C@H]7NC(C)=O)[C@H](O)[C@H]6O)[C@H]5NC(C)=O)[C@H](O)[C@H]4O)[C@H]3NC(C)=O)[C@H](O)[C@H]2O)[C@H]1NC(C)=O)C(=O)N[C@@H](Cc1c[nH]c2ccccc12)C(=O)N[C@@H](CC(C)C)C(=O)N[C@H](C(=O)N[C@@H](CCCCN)C(=O)NCC(=O)N[C@@H](CCCNC(=N)N)C(=O)NCC(=O)O)C(C)C [Example 10, 30Cys-hyaluronic acid hexadecasaccharide (HA-16) Added GLP-1 Peptide]",3.9
5,36Cys-hyaluronic acid octasaccharide (HA-8) Added GLP-1 Peptide (HAEGTFTSDVSSYLEGQAAKEFIAWLVKGC(hyaluronic acid octasaccharide)G) [Example 9],3
6,"CC[C@H](C)[C@H](NC(=O)[C@H](Cc1ccccc1)NC(=O)[C@H](CCC(=O)O)NC(=O)[C@H](CCCCN)NC(=O)[C@H](C)NC(=O)[C@H](C)NC(=O)[C@H](CCC(N)=O)NC(=O)CNC(=O)[C@H](CCC(=O)O)NC(=O)[C@H](CC(C)C)NC(=O)[C@H](Cc1ccc(O)cc1)NC(=O)[C@H](CO)NC(=O)[C@H](CO)NC(=O)[C@@H](NC(=O)[C@H](CC(=O)O)NC(=O)[C@H](CO)NC(=O)[C@@H](NC(=O)[C@H](Cc1ccccc1)NC(=O)[C@@H](NC(=O)CNC(=O)[C@H](CCC(=O)O)NC(=O)[C@H](C)NC(=O)[C@@H](N)Cc1c[nH]cn1)[C@@H](C)O)[C@@H](C)O)C(C)C)C(=O)N[C@@H](C)C(=O)N[C@@H](Cc1c[nH]c2ccccc12)C(=O)N[C@@H](CC(C)C)C(=O)N[C@H](C(=O)N[C@@H](CCCCN)C(=O)NCC(=O)N[C@@H](CSCC(=O)N[C@@H]1O[C@H](CO)[C@@H](O)[C@H](O[C@@H]2O[C@H](C(=O)O)[C@@H](O[C@@H]3O[C@H](CO)[C@@H](O)[C@H](O[C@@H]4O[C@H](C(=O)O)[C@@H](O[C@@H]5O[C@H](CO)[C@@H](O)[C@H](O[C@@H]6O[C@H](C(=O)O)[C@@H](O[C@@H]7O[C@H](CO)[C@@H](O)[C@H](O[C@@H]8O[C@H](C(=O)O)[C@@H](O[C@@H]9O[C@H](CO)[C@@H](O)[C@H](O[C@@H]%10O[C@H](C(=O)O)[C@@H](O[C@@H]%11O[C@H](CO)[C@@H](O)[C@H](O[C@@H]%12O[C@H](C(=O)O)[C@@H](O[C@@H]%13O[C@H](CO)[C@@H](O)[C@H](O[C@@H]%14O[C@H](C(=O)O)[C@@H](O[C@@H]%15O[C@H](CO)[C@@H](O)[C@H](O[C@@H]%16O[C@H](C(=O)O)[C@@H](O)[C@H](O)[C@H]%16O)[C@H]%15NC(C)=O)[C@H](O)[C@H]%14O)[C@H]%13NC(C)=O)[C@H](O)[C@H]%12O)[C@H]%11NC(C)=O)[C@H](O)[C@H]%10O)[C@H]9NC(C)=O)[C@H](O)[C@H]8O)[C@H]7NC(C)=O)[C@H](O)[C@H]6O)[C@H]5NC(C)=O)[C@H](O)[C@H]4O)[C@H]3NC(C)=O)[C@H](O)[C@H]2O)[C@H]1NC(C)=O)C(=O)NCC(=O)O)C(C)C [Example 11, 36Cys-hyaluronic acid hexadecasaccharide (HA-16) Added GLP-1 Peptide]",3
